# According to ChEMBL document CHEMBL4706583, “2-Anilinoquinoline based arylamides as broad spectrum anticancer agents with B-RAF/C-RAF kinase inhibitory effects: Design, synthesis, in vitro cell-based and oncogenic kinase assessments” (Eur J Med Chem, 2020):
# Active and inactive are the calls of the source. The rule behind the calls is not given here.
# Legend:
# [1] = biological target: Epithelial discoidin domain-containing receptor 1 (Homo sapiens, UniProt Q08345); assay: Inhibition of human DDR1 using KKSRGDYMTMQIG as substrate in presence of [gamma-33P]ATP by scintillation counting method
# HL-60(TB) = assay: Growth inhibition of human HL-60(TB) cells measured after 48 hrs by SRB assay; assay type: functional
# HCT-116 [2] = assay: Induction of apoptosis in human HCT-116 cells assessed as necrotic cells at 2.5 uM measured after 48 hrs by Annexin-V Alexa Fluor488/propidium iodide staining based flow cytometry (reference value: 7.7%); assay type: functional
# HCT-116 [3] = assay: Induction of apoptosis in human HCT-116 cells assessed as early apoptotic cells at 1.25 uM measured after 24 hrs by Annexin-V Alexa Fluor488/propidium iodide staining based flow cytometry (reference value: 6.3%); assay type: functional
# HCT-116 [4] = assay: Induction of apoptosis in human HCT-116 cells assessed as necrotic cells at 1.25 uM measured after 48 hrs by Annexin-V Alexa Fluor488/propidium iodide staining based flow cytometry (reference value: 7.7%); assay type: functional
# Homo sapiens = species: Homo sapiens; assay: Selectivity ratio of IC50 for inhibition of human BRAF V600E mutant to IC50 for inhibition of human CRAF
# HCT-116 [5] = assay: Growth inhibition of human HCT-116 cells measured after 48 hrs by SRB assay; assay type: functional
# LOX IMVI = assay: Growth inhibition of human LOX IMVI cells at 10 uM measured after 48 hrs by SRB assay relative to control; assay type: functional; details: read-out: GI
# NCI-H522 = assay: Growth inhibition of human NCI-H522 cells measured after 48 hrs by SRB assay; assay type: functional
# KM12 = assay: Growth inhibition of human KM12 cells measured after 48 hrs by SRB assay; assay type: functional
# HCT-116 [6] = assay: Induction of apoptosis in human HCT-116 cells assessed as late apoptotic cells at 2.5 uM measured after 24 hrs by Annexin-V Alexa Fluor488/propidium iodide staining based flow cytometry (reference value: 1%); assay type: functional
# HCT-116 [7] = assay: Induction of apoptosis in human HCT-116 cells assessed as late apoptotic cells at 1.25 uM measured after 24 hrs by Annexin-V Alexa Fluor488/propidium iodide staining based flow cytometry (reference value: 1%); assay type: functional
# A498 = assay: Growth inhibition of human A498 cells measured after 48 hrs by SRB assay; assay type: functional
# BT-549 = assay: Growth inhibition of human BT-549 cells measured after 48 hrs by SRB assay; assay type: functional
# HCT-116 [8] = assay: Cell cycle arrest in human HCT-116 cells assessed as increase in G0/G1-phase accumulation measured after 24 to 48 hrs by propidium iodide staining based flow cytometry; assay type: functional; details: dose 1.25-5 µM, time 24-48 hrs
# [9] = Cytotoxicity against human L132 cells assessed as cell viability at 1 uM measured after 48 hrs by EZ-Cytox assay relative to control; assay type: cell-based; details: read-out: Activity
# [10] = biological target: Serine/threonine-protein kinase B-raf (Homo sapiens, UniProt P15056, V600E); assay: Inhibition of human BRAF V600E mutant using MEK1 (K97R) as substrate in presence of [gamma-33P]ATP by scintillation counting method
# SF-268 = assay: Growth inhibition of human SF-268 cells measured after 48 hrs by SRB assay; assay type: functional
# COLO 205 = assay: Growth inhibition of human COLO 205 cells measured after 48 hrs by SRB assay; assay type: functional
# OVCAR-3 = assay: Growth inhibition of human OVCAR-3 cells measured after 48 hrs by SRB assay; assay type: functional
# SN12C = assay: Growth inhibition of human SN12C cells measured after 48 hrs by SRB assay; assay type: functional
# SK-MEL-5 = assay: Growth inhibition of human SK-MEL-5 cells measured after 48 hrs by SRB assay; assay type: functional
# HCT-116 [11] = assay: Induction of apoptosis in human HCT-116 cells assessed as necrotic cells at 5 uM measured after 48 hrs by Annexin-V Alexa Fluor488/propidium iodide staining based flow cytometry (reference value: 7.7%); assay type: functional
# HCT-116 [12] = assay: Induction of apoptosis in human HCT-116 cells assessed as viable cells at 5 uM measured after 48 hrs by Annexin-V Alexa Fluor488/propidium iodide staining based flow cytometry (reference value: 82.3%); assay type: functional; details: read-out: Activity
# SK-OV-3 = assay: Growth inhibition of human SK-OV-3 cells measured after 48 hrs by SRB assay; assay type: functional
# MCF7 = assay: Growth inhibition of human MCF7 cells measured after 48 hrs by SRB assay; assay type: functional
# OVCAR-4 = assay: Growth inhibition of human OVCAR-4 cells measured after 48 hrs by SRB assay; assay type: functional
# NCI-H460 = assay: Growth inhibition of human NCI-H460 cells measured after 48 hrs by SRB assay; assay type: functional
# MDA-MB-231 = assay: Growth inhibition of human MDA-MB-231 cells measured after 48 hrs by SRB assay; assay type: functional
# SK-MEL-28 = assay: Growth inhibition of human SK-MEL-28 cells measured after 48 hrs by SRB assay; assay type: functional
# SW-620 = assay: Growth inhibition of human SW-620 cells measured after 48 hrs by SRB assay; assay type: functional
# SNB-75 = assay: Growth inhibition of human SNB-75 cells measured after 48 hrs by SRB assay; assay type: functional
# HCC 2998 = assay: Growth inhibition of human HCC 2998 cells measured after 48 hrs by SRB assay; assay type: functional
# HCT-116 [13] = assay: Induction of apoptosis in human HCT-116 cells assessed as early apoptotic cells at 5 uM measured after 48 hrs by Annexin-V Alexa Fluor488/propidium iodide staining based flow cytometry (reference value: 7.7%); assay type: functional
# 786-0 = assay: Growth inhibition of human 786-0 cells measured after 48 hrs by SRB assay; assay type: functional
# HCT-116 [14] = assay: Induction of apoptosis in human HCT-116 cells assessed as early apoptotic cells at 1.25 uM measured after 48 hrs by Annexin-V Alexa Fluor488/propidium iodide staining based flow cytometry (reference value: 7.7%); assay type: functional
# IGROV-1 = assay: Growth inhibition of human IGROV-1 cells measured after 48 hrs by SRB assay; assay type: functional
# HCT-116 [15] = assay: Induction of apoptosis in human HCT-116 cells assessed as late apoptotic cells at 1.25 uM measured after 48 hrs by Annexin-V Alexa Fluor488/propidium iodide staining based flow cytometry (reference value: 2.2%); assay type: functional
# CAKI-1 = assay: Growth inhibition of human CAKI-1 cells measured after 48 hrs by SRB assay; assay type: functional
# HCT-116 [16] = assay: Induction of apoptosis in human HCT-116 cells assessed as late apoptotic cells at 2.5 uM measured after 48 hrs by Annexin-V Alexa Fluor488/propidium iodide staining based flow cytometry (reference value: 2.2%); assay type: functional
# [17] = Cytotoxicity against African green monkey Vero cells assessed as cell viability at 1 uM measured after 48 hrs by EZ-Cytox assay relative to control; assay type: cell-based; details: chlorocebus sabaeus, read-out: Activity
# Sus scrofa = species: Sus scrofa; assay: Induction of porcine brain tubulin polymerization at 10 uM measured at 30 secs interval for 60 mins by fluorescence assay; assay type: tissue-based
# Serine/threonine-protein kinase B-raf, sequence (P15056 2-766 V600E limits assumed): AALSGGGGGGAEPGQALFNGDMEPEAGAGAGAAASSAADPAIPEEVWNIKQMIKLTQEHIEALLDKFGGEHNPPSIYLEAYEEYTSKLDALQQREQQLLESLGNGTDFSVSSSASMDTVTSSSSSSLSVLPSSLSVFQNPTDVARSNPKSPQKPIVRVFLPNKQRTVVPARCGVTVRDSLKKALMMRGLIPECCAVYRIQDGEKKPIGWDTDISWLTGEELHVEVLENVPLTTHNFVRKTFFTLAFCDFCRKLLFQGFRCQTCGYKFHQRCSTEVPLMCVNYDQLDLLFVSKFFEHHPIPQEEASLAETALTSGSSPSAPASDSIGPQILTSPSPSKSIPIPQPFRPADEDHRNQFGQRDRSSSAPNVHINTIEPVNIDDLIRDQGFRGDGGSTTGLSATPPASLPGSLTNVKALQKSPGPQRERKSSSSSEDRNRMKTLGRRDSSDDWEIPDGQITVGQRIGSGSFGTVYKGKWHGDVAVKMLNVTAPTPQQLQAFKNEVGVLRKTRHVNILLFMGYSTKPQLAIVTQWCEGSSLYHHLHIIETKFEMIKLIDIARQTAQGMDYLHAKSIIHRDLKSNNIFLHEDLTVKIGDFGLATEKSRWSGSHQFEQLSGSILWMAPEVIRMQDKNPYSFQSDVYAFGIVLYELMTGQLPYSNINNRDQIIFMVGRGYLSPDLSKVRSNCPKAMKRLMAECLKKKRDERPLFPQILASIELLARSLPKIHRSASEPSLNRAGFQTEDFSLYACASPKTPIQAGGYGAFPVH
# Epithelial discoidin domain-containing receptor 1, sequence (Q08345 whole entry, the tested form may be a part): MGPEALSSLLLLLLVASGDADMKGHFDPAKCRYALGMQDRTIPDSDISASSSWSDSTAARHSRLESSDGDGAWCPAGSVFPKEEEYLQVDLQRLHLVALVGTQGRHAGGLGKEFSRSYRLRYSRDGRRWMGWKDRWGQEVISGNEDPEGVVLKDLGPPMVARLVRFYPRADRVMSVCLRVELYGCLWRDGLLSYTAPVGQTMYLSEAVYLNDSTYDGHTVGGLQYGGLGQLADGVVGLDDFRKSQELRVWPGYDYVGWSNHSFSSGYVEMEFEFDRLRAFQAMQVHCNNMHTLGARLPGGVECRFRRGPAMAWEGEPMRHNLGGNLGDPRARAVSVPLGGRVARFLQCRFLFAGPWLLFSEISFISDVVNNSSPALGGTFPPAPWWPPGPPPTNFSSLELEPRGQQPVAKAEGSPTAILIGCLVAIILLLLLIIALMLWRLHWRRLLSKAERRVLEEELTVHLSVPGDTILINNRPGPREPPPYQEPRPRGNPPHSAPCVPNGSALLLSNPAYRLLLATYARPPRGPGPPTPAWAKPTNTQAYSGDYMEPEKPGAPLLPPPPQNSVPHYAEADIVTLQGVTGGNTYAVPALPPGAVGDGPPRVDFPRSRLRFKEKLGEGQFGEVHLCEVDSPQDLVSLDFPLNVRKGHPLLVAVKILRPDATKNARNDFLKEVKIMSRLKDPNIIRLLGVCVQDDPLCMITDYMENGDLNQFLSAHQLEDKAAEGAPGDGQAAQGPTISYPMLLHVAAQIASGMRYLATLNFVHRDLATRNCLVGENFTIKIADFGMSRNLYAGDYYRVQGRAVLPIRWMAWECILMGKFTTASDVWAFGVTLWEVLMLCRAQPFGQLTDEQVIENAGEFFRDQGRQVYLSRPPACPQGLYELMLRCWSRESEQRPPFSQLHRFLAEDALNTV
compound,measurement,setting,value
CCN1CCN(c2cc(C(=O)Nc3cccc(Nc4ccc5c(OC)cccc5n4)c3)cc(C(F)(F)F)c2)CC1,IC50,[1],538 nM
same,GI50,HL-60(TB),3820 nM
same,Activity,HCT-116 [2],1.2%
same,Activity,HCT-116 [3],12.5%
same,Activity,HCT-116 [4],0.3%
same,Ratio IC50,Homo sapiens,2
same,GI50,HCT-116 [5],872 nM
same,LC50,HCT-116 [5],12400 nM
same,TGI,HCT-116 [5],3540 nM
same,inhibition of growth at 10 µM,LOX IMVI,194%
same,GI50,NCI-H522,1010 nM
same,GI50,KM12,1710 nM
same,Activity,HCT-116 [6],0.9%
same,Activity,HCT-116 [7],0.6%
same,GI50,A498,4940 nM
same,GI50,BT-549,3780 nM
same,Activity,HCT-116 [8],Dose-dependent effect
same,"viability at 48 h, 1 µM",[9],91.2%
same,IC50,[10],888 nM
same,GI50,SF-268,1760 nM
same,GI50,COLO 205,654 nM
same,GI50,OVCAR-3,3410 nM
same,GI50,SN12C,1390 nM
same,GI50,SK-MEL-5,1550 nM
same,Activity,HCT-116 [11],0.5%
same,viability at 5 µM,HCT-116 [12],72%
same,GI50,SK-OV-3,4600 nM
same,GI50,MCF7,679 nM
same,LC50,MCF7,17600 nM
same,TGI,MCF7,2280 nM
same,GI50,OVCAR-4,1570 nM
same,GI50,NCI-H460,1340 nM
same,GI50,MDA-MB-231,1800 nM
same,GI50,SK-MEL-28,846 nM
same,GI50,SW-620,3670 nM
same,GI50,SNB-75,1050 nM
same,GI50,HCC 2998,720 nM
same,Activity,HCT-116 [13],26.8%
same,GI50,786-0,3730 nM
same,Activity,HCT-116 [14],16.6%
same,GI50,IGROV-1,924 nM
same,LC50,IGROV-1,20000 nM
same,TGI,IGROV-1,5230 nM
same,Activity,HCT-116 [15],0.4%
same,GI50,CAKI-1,917 nM
same,Activity,HCT-116 [16],1%
same,"viability at 48 h, 1 µM",[17],81.5%
same,Activity,Sus scrofa,Active
COc1cccc2nc(Nc3cccc(NC(=O)c4ccc(N5CCN(C)CC5)c(C(F)(F)F)c4)c3)ccc12,IC50,[1],2250 nM
same,GI50,HL-60(TB),1070 nM
same,Activity,HCT-116 [2],4.2%
same,Activity,HCT-116 [3],4.7%
same,Activity,HCT-116 [4],2.7%
same,Ratio IC50,Homo sapiens,2
same,GI50,HCT-116 [5],868 nM
same,LC50,HCT-116 [5],4100 nM
same,TGI,HCT-116 [5],1890 nM
same,inhibition of growth at 10 µM,LOX IMVI,197%
same,GI50,NCI-H522,1040 nM
same,GI50,KM12,1090 nM
same,Activity,HCT-116 [6],4.1%
same,Activity,HCT-116 [7],1.7%
same,GI50,A498,1800 nM
same,GI50,BT-549,2790 nM
same,Activity,HCT-116 [8],Dose-dependent effect
same,"viability at 48 h, 1 µM",[9],97%
same,IC50,[10],1460 nM
same,GI50,SF-268,1500 nM
same,GI50,COLO 205,909 nM
same,GI50,OVCAR-3,1210 nM
same,GI50,SN12C,1700 nM
same,GI50,SK-MEL-5,1520 nM
same,Activity,HCT-116 [11],3.5%
same,viability at 5 µM,HCT-116 [12],61.5%
same,GI50,SK-OV-3,1730 nM
same,GI50,MCF7,851 nM
same,LC50,MCF7,4250 nM
same,TGI,MCF7,1900 nM
same,GI50,OVCAR-4,1430 nM
same,GI50,NCI-H460,964 nM
same,GI50,MDA-MB-231,1550 nM
same,GI50,SK-MEL-28,896 nM
same,GI50,SW-620,968 nM
same,GI50,SNB-75,695 nM
same,GI50,HCC 2998,950 nM
same,Activity,HCT-116 [13],29.6%
same,GI50,786-0,923 nM
same,Activity,HCT-116 [14],14%
same,GI50,IGROV-1,1250 nM
same,LC50,IGROV-1,25600 nM
same,TGI,IGROV-1,4240 nM
same,Activity,HCT-116 [15],1.7%
same,GI50,CAKI-1,1120 nM
same,Activity,HCT-116 [16],2%
same,"viability at 48 h, 1 µM",[17],86.5%
same,Activity,Sus scrofa,Active
